Experimental data as given in article PMC9785542, “Discovery of 1-Benzhydryl-Piperazine-Based HDAC Inhibitors with Anti-Breast Cancer Activity: Synthesis, Molecular Modeling, In Vitro and In Vivo Biological Evaluation” (Pharmaceutics, 2022).

Legend:
[1] = tested on: intersegmental blood vessels (ISVs) of Tg(fli1:EGFP) zebrafish embryos; test: Anti-angiogenic activity in Tg(fli1:EGFP) zebrafish embryos; type: in vivo
Procedure: The inhibitory activity of 8b on angiogenesis was examined using embryos of the transgenic zebrafish Tg(fli1:EGFP) line with GFP-labeled endothelial cells, as previously described. Briefly, embryos at the 6–8 hpf stage were exposed to three non-toxic concentrations and incubated at 28 °C by 48 hpf. At 48 hpf, the treated embryos were anesthetized with 0.02% tricaine, imaged under a fluorescence microscope (Olympus BX51, Applied Imaging Corp., San Jose, CA, USA), and analyzed for the development of intersegmental blood vessels (ISVs). The experiment was performed three times using ten embryos per concentration. ISV lengths were measured using ImageJ program, and expressed as mean value with standard deviation. Inhibitory effect of the applied treatment was determined in relation to the control (DMSO-treated) group, arbitrarily set to 100%.

[2] = tested on: MDA-MB-231 xenografts in Tg(fli1:EGFP) zebrafish embryos; test: Zebrafish MDA-MB-231 xenograft model; type: in vivo; settings: for reduction of tumor mass vs untreated control: 3 days post injection
Procedure: The human breast carcinoma MDA-MB 231 cell line was cultured in DMEM:Ham’s 12 (1:1) medium (Sigma-Aldrich, St. Louis, MO, USA) supplemented with 10% FBS (Sigma-Aldrich, St. Louis, MO, USA), 100 µg/mL streptomycin, and 100 U/mL penicillin (Sigma-Aldrich, St. Louis, MO, USA), and grown as a monolayer in humidified atmosphere of 95% air and 5% CO2 at 37 °C. Prior to microinjection, the cells were washed once with PBS and trypsinized (0.25% trypsin/0.53 mM EDTA) (Sigma-Aldrich, St. Louis, MO, USA) to obtain a single-cell suspension. After centrifugation at 1200 rpm for 5 min, the cells were resuspended in serum-free DMEM medium and labeled with 2 µM Cell Tracker TM Red CMTPX (Thermo Fisher Scientific) according to the manufacturer’s instructions.
The zebrafish xenografts with human MDA-MB-231 cells were established according to the previously described procedure with slight modification. A day before the microinjections, Tg(fli1:EGFP) embryos kept at 28 °C were manually dechorionated. At the 48 hpf stage, 5 nL of MDA-MB 231 cell suspension containing 150 labeled cells was microinjected into the yolk of anesthetized embryos by a pneumatic picopump (PV820, World Precision Instruments, Sarasota, FL, USA). The exact number of cells was confirmed by dispensing the injected volume onto a microscope slide and by visual counting. After injection, embryos were incubated, to recover, for at least for 60 min at 28 °C, dead embryos were removed, while alive embryos were transferred into 24-well plates containing 1 mL of E3 water and 10 embryos per well. The injected xenografts were treated with the three doses of 8b (3.13, 6.25, and 12.5 µM), and maintained at 31–32 °C by 120 hpf. DMSO (0.25%) was used as a negative control. The survival and development of the xenografted embryos was recorded every day until the end of experiment (3 days post injection = 3 dpi), at which point, anesthetized xenografts were processed by fluorescent microscopy. The tumor size, number of xenografts with disseminated tumor cells in the caudal region, and number of disseminated cells per embryo were determined. The tumor size was determined by the fluorescent images using ImageJ. The experiment was repeated two times using 10 embryos per concentration.

MDA-MB-231 cells [3] = test: Matrigel invasion assay; type: cell-based, human; settings: 24 h; 5 μM 8b, 10 μM 9b
Procedure: (§1) To determine MDA-MB-231 cell migration and invasion cell capacities, Corning® Costar® Transwell® cell culture inserts with 8.0 μm pore polycarbonate filters (Sigma Aldrich, CLS3464) and Corning™ BioCoat™ Matrigel™ Invasion Chamber with Corning Matrigel Matrix™ cell culture inserts (Thermo fisher scientific, Waltham, MA, USA) respectively were used. Briefly, 6 × 10^4 cells in 200 μL were seeded in the upper chamber and the bottom chamber was filled with 800 μL of medium. After 24 h under indicated treatments, the remaining cells in the upper chamber were gently removed with a cotton swab, moistened with medium, and the inserts were carefully washed twice with 37 °C warmed PBS. Then, attached cells at the bottom side of the membrane were fixed by immersing in ice cold methanol for 2 min and stained with 0.1% crystal violet for 15 min at room temperature. Stained cells were photographed and quantified using NIH ImageJ software.

MDA-MB-231 cells [4] = test: Bicameral (transwell) migration assay; type: cell-based, human; settings: 24 h; 5 μM 8b, 10 μM 9b
Procedure: as §1

MCF-7 cells = test: Wound healing assay; type: cell-based; settings: Homo sapiens, MCF7, 24 h, read-out: inhibition of wound closure compared to control
Procedure: To determine MCF-7 cell migration properties, 1 × 10^5 cells were seeded in 24-well plates and cultured until confluent. Then, cell monolayers were scratched using a sterile 200 μL pipette tip, and cell cultures were allowed to grow for 24 h under the indicated treatments. At the end of incubation period, culture medium was removed and wells were washed twice with PBS, then, cells were fixed with ice-cold methanol and stained with 0.1% crystal violet. In addition, cell monolayers were fixed and stained just after scratching to represent zero time migration. Finally, cell migration into the scratch area was documented by inverted light microscopy and quantified using NIH ImageJ software.

| Compound | embryos affected in terms of ISV growth (anti-angiogenic phenotype) ([1]; 6.25 µM, 48 hpf) | toxic response in embryos at anti-angiogenic effective doses ([1]; 8b 6.25-50 µM, Suten effective dose 1.56 µM) | ISV inhibition ([1]; 25 and 50 µM, 48 hpf) | number of metastasis per embryo, fold lower than untreated ([2]; 3.13 µM, 3-day treatment) | reduction of number of embryos exhibiting metastases ([2]; 3.13 µM, 3-day treatment) [%] | reduction of tumor mass vs untreated control ([2]; 3.13 µM) [%] | dissemination of MDA-MB-231 cells ([2]; 12.5 µM) | reduction of tumor mass vs untreated control ([2]; 12.5 µM) | ED50 (effective drug concentration reducing tumor mass by 50% in relation to the control) ([2]; 3-day treatment) [nM] | toxic side effects in xenografts ([2]; 3.13, 6.25 and 12.5 µM, 3-day treatment) | anti-invasive property (% compared to control) (MDA-MB-231 cells [3]) | anti-migratory property (% compared to control) (MDA-MB-231 cells [4]) | inhibition at 10 µM (MCF-7 cells) [%] |
| --- | --- | --- | --- | --- | --- | --- | --- | --- | --- | --- | --- | --- | --- |
| O=C(CCCCCCCN1CCN(C(c2ccccc2)c2ccccc2)CC1)NO [Compound 8b, 8-(4-(diphenylmethyl)-piperazin-1-yl)-N-hydroxyoctanamide] | ~ 60% | did not elicit any toxic response | majority of ISVs were inhibited | up to 9.6 fold | 50 | 56.1 ± 5.2 | completely inhibited | almost complete reduction | 2670 | no toxic side effects were observed | 59% |  |  |
| O=C(NO)c1ccc(CN2CCN(C(c3ccccc3)c3ccccc3)CC2)cc1 [Compound 9b, 4-(4-(diphenylmethyl)-piperazin-1-ylmethyl)-N-hydroxy-benzamide] |  |  |  |  |  |  |  |  |  |  | did not reduce | did not reduce | 63.9 |
